From patent US12678423B2, “Therapeutic agent for amyotrophic lateral sclerosis and composition for treatment” (KEIO UNIVERSITY, priority 2016, dated 2026)

Assays:
Format in all cases: cell-based, human
Conditions in all cases: final concentration 10 μM, added days 35 to 40
[1] = tested on: motor neurons induced to differentiate from iPS cells derived from ALS patients (FUS-ALS) having a mutation in FUS; assay: Stress granule formation (G3BP immunostaining), FUS-ALS motor neurons
Protocol: On day 40 from the start of differentiation induction, the formation of stress granules was examined using each differentiation-induced motor neuron in Example I-1. The detection of stress granules was performed by immunostaining with G3BP, which is a marker of stress granules.
(§1) Using the differentiation-induced motor neurons in Example I-1, drugs which cause the ALS phenotype to be restored were screened from existing drug libraries with the neurite length, ectopic localization of FUS protein, stress granule formation, LDH leakage ratio, CV-caspase 3-positive ratio, phosphorylated TDP-43 protein inclusion formation, and the like as indices.
(§2) As a result of the screening, ropinirole was found as a promising therapeutic agent for ALS. Tables 5 and 6 show the improvement ratio (%) in the ALS phenotype due to adding ropinirole to the medium. Here, ropinirole was added to the medium on days 35 to 40 from the start of the differentiation induction of each iPS cell. Here, it is assumed that days 35 to 40 from the start of differentiation induction correspond to the early stage of the ALS disease.
(§3) The improvement ratio (%) of the ALS phenotype was calculated by Equation (1).
(§4) [formula] [In Equation (1), A represents a measurement value of motor neurons induced to differentiate from iPS cells derived from ALS patients in the absence of ropinirole, and B represents a measurement value of motor neurons induced to differentiate from iPS cells derived from ALS patients in the presence of ropinirole, and C represents a measurement value of motor neurons induced to differentiate from iPS cells derived from healthy subjects in the absence of ropinirole.]
(§5) Subsequently, in the same manner as above, the efficacy in cases of administering lower concentrations of ropinirole was evaluated.
(§6) Each drug was added to the medium at a final concentration of 10 μM.

[2] = tested on: motor neurons induced to differentiate from iPS cells derived from ALS patients (FUS-ALS) having a mutation in FUS; assay: Ectopic localization of FUS protein in the cytoplasm, FUS-ALS motor neurons
Excerpt: Therefore, on day 40 from the start of differentiation induction, each differentiation-induced motor neuron in Example I-1 was immunostained and the localization of FUS protein in the cytoplasm was examined.
as §1, §2, §3, §4, §5, §6

[3] = tested on: motor neurons induced to differentiate from iPS cells derived from ALS patients (TDP-43-ALS) having a mutation in TDP-43; assay: Neurite length, TDP-43-ALS motor neurons (screening, Example I-8)
Protocol: (§7) For each differentiation-induced motor neuron in Example I-1, the changes over time in the neurite length were measured. A Bio station CT (Nikon Corp.) was used to measure the neurite length over time. FIG. 1 is a graph showing measurement results of changes over time in the neurite length. The vertical axis represents neurite length (relative value), and the horizontal axis represents the number of days of culturing from the start of differentiation induction.
as §1, §2, §3, §4, §5, §6

[4] = tested on: motor neurons induced to differentiate from iPS cells derived from ALS patients (FUS-ALS) having a mutation in FUS; assay: LDH leakage ratio, FUS-ALS motor neurons
Protocol: (§8) The leakage amount of LDH into the medium is an indicator of cytotoxicity. For measurement of the LDH leakage ratio, a commercially available kit (model “LDH Cytotoxicity Detection Kit”, Takara Bio Inc.) was used.
(§9) Here, ropinirole was added to the medium on days 35 to 40 from the start of the differentiation induction of each iPS cell. Here, it is assumed that days 35 to 40 from the start of differentiation induction correspond to the early stage of the ALS disease.
as §3, §4, §5, §6

[5] = tested on: motor neurons induced to differentiate from iPS cells derived from ALS patients (TDP-43-ALS) having a mutation in TDP-43; assay: LDH leakage ratio, TDP-43-ALS motor neurons
Protocol: as §8, §9, §3, §4, §5, §6

[6] = tested on: motor neurons induced to differentiate from iPS cells derived from ALS patients (TDP-43-ALS) having a mutation in TDP-43; assay: Phosphorylated TDP-43 protein inclusion formation, TDP-43-ALS motor neurons
Excerpt: Therefore, on day 40 from the start of differentiation induction, each differentiation-induced motor neuron in Example I-1 was immunostained and the formation of phosphorylated TDP-43 protein inclusions was examined.
as §1, §2, §3, §4, §5, §6

[7] = tested on: motor neurons induced to differentiate from iPS cells derived from ALS patients (FUS-ALS) having a mutation in FUS; assay: Neurite length, FUS-ALS motor neurons (screening, Example I-8)
Protocol: as §7, §1, §2, §3, §4, §5, §6

CO/N=C(\C(=O)N[C@@H]1C(=O)N2C(C(=O)O)=C(CSc3nc(=O)c(=O)[nH]n3C)CS[C@H]12)c1csc(N)n1 [Ceftriaxone]
Stress granule formation improvement ratio [1]: 11.0% | Ectopic localization of FUS protein improvement ratio [2]: 22.6% | Neurite length improvement ratio [3]: 20.4% | LDH leakage ratio improvement ratio [4]: 21.2% | LDH leakage ratio improvement ratio [5]: 15.1% | TDP-43 inclusion formation improvement ratio [6]: 35.4% | Neurite length improvement ratio [7]: 36.3%

CC1=NN(c2ccccc2)C(=O)C1 [Edaravone]
Stress granule formation improvement ratio [1]: 19.8% | Ectopic localization of FUS protein improvement ratio [2]: 20.4% | Neurite length improvement ratio [3]: 14.2% | LDH leakage ratio improvement ratio [4]: 12.4% | LDH leakage ratio improvement ratio [5]: 23.2% | TDP-43 inclusion formation improvement ratio [6]: 11.6% | Neurite length improvement ratio [7]: 15.9%
